Laboratory results from article PMC9490041, “Determinants of affinity, specificity, and phase separation in a supramodule from Post-synaptic density protein 95” (iScience, 2022).
pKi: −log10 of the molar value. Read-outs that look alike come from different tables or passages of the source. Ends that are not written are not given here.

Experiments:
Assay in all cases: FP displacement (competition) of FITC-15 AA CRIPT by library peptide, IC50 and Ki
[1] = target: PSG G322A G335A (PSD-95); conditions: for IC50: read-out: IC50 (µM), PSG G322A G335A; for Ki: read-out: Ki (µM), PSG G322A G335A
[2] = target: PSG G335A (PSD-95); conditions: for IC50: read-out: IC50 (µM), PSG G335A; for Ki: read-out: Ki (µM), PSG G335A
[3] = target: PSG (PSD-95); conditions: for IC50: read-out: IC50 (µM), PSG; for Ki: read-out: Ki (µM), PSG
[4] = target: PSG G322A (PSD-95); conditions: for IC50: read-out: IC50 (µM), PSG G322A; for Ki: read-out: Ki (µM), PSG G322A
[5] = FP displacement of FITC-15 AA CRIPT probe by acetylated PSD library peptide (P-13 to P0 plus extra N-terminal Y)
[6] = FP displacement of FITC-15 AA CRIPT probe by acetylated PSD library peptide
[7] = FP displacement of FITC-15 AA CRIPT probe by PSD library peptide, protein PSG G322A G335A
[8] = FP displacement of FITC-15 AA CRIPT probe by PSD library peptide, protein PSG (wild type)
[9] = FP displacement of FITC-15 AA CRIPT probe by PSD library peptide, protein PSG G322A
[10] = FP displacement of FITC-15 AA CRIPT probe by PSD library peptide, protein PSG G335A

Row | IC50 [1, 5] [µM] | Ki [1, 6] [µM] | IC50 [2, 6] [µM] | Ki [2, 6] [µM] | IC50 [3, 6] [µM] | Ki [3, 6] [µM] | IC50 [1, 7] [µM] | Ki [1, 7] [µM] | IC50 [3, 8] [µM] | Ki [3, 8] [µM] | IC50 [4, 9] [µM] | Ki [4, 9] [µM] | IC50 [2, 10] [µM] | Ki [2, 10] [µM] | IC50 [4, 6] [µM] | Ki [4, 6] [µM] | pKi ([3]; FP displacement of 5 nM FITC-15 AA CRIPT by non-labeled acetylated peptide, room temperature, Ki from IC50, technical triplicates, PSG) | Molecule
1 | 973 | 337 | 2060 | 736 | 2060 | 879 | – | – | – | – | – | – | – | – | – | – | – | Ac-YDKPLSKKHAHSVNF [PDLI5]
2 | – | – | – | – | – | – | 1170 | 405 | 1220 | 518 | 2000 | 867 | – | – | – | – | – | CC(=O)N[C@@H](Cc1ccc(O)cc1)C(=O)N[C@@H](Cc1c[nH]cn1)C(=O)N[C@@H](Cc1c[nH]cn1)C(=O)N[C@H](C(=O)N[C@@H](CO)C(=O)N[C@@H](Cc1ccc(O)cc1)C(=O)N[C@H](C(=O)N[C@@H](C)C(=O)N[C@@H](CO)C(=O)N[C@@H](CCCCN)C(=O)N[C@H](C(=O)N[C@@H](CCC(=O)O)C(=O)N[C@H](C(=O)N[C@H](C(=O)N[C@H](C(=O)O)C(C)C)[C@@H](C)O)C(C)C)[C@@H](C)O)[C@@H](C)O)[C@@H](C)O [SHSA6]
3 | – | – | – | – | – | – | 238 | 82 | 865 | 456 | 190 | 82 | 499 | 178 | – | – | – | CC(=O)N[C@@H](Cc1ccc(O)cc1)C(=O)N[C@@H](CC(=O)O)C(=O)N[C@@H](CO)C(=O)N[C@H](C(=O)N[C@@H](CCC(=O)O)C(=O)N[C@@H](CCC(N)=O)C(=O)N[C@@H](CO)C(=O)N[C@@H](CC(=O)O)C(=O)N[C@H](C(=O)N[C@@H](CCCNC(=N)N)C(=O)N[C@@H](Cc1ccccc1)C(=O)N[C@@H](CO)C(=O)N[C@@H](CO)C(=O)N[C@@H](C)C(=O)N[C@H](C(=O)O)C(C)C)C(C)C)[C@@H](C)O [GPER1]
4 | 536 | 185 | 764 | 272 | 1740 | 743 | – | – | – | – | – | – | – | – | 503 | 218 | – | Ac-YLTGAPLATSDETSI [SEM4F]
5 | – | – | – | – | – | – | 0.868 | – | 6 | 2.44 | 1.49 | 0.496 | 2 | – | – | – | > 4.12 | CC(=O)N[C@@H](Cc1ccc(O)cc1)C(=O)N[C@@H](CCCCN)C(=O)N[C@@H](CCCCN)C(=O)N[C@H](C(=O)N[C@@H](CC(C)C)C(=O)N[C@@H](CC(=O)O)C(=O)N[C@H](C(=O)N[C@@H](CCCCN)C(=O)N[C@@H](CC(N)=O)C(=O)N[C@@H](Cc1ccc(O)cc1)C(=O)N[C@@H](CCCCN)C(=O)N[C@@H](CCC(N)=O)C(=O)N[C@H](C(=O)N[C@@H](CO)C(=O)N[C@H](C(=O)O)C(C)C)[C@@H](C)O)[C@@H](C)O)C(C)C [CRIPT]
6 | – | – | – | – | 1390 | 592 | – | – | – | – | – | – | – | – | – | – | – | Ac-YSRQHSKLLDFDDVL [NSMF]
7 | 1630 | 564 | 1600 | 569 | 1160 | 493 | – | – | – | – | – | – | – | – | 1450 | 629 | – | CC[C@H](C)[C@H](NC(=O)[C@@H](NC(=O)[C@H](CCCCN)NC(=O)[C@H](CCCCN)NC(=O)CNC(=O)[C@H](CC(C)C)NC(=O)[C@H](CCCCN)NC(=O)[C@H](C)NC(=O)[C@H](CCSC)NC(=O)[C@H](CCCNC(=N)N)NC(=O)[C@H](CCSC)NC(=O)[C@H](CCCNC(=N)N)NC(=O)[C@H](CC(C)C)NC(=O)[C@H](C)NC(=O)[C@H](Cc1ccc(O)cc1)NC(C)=O)C(C)C)C(=O)O [PALMD]
8 | 534 | 185 | 1130 | 402 | 1080 | 459 | – | – | – | – | – | – | – | – | 342 | 148 | – | CC(=O)N[C@@H](Cc1ccc(O)cc1)C(=O)N[C@@H](CC(C)C)C(=O)N1CCC[C@H]1C(=O)N[C@@H](CC(C)C)C(=O)N[C@@H](CC(=O)O)C(=O)N[C@H](C(=O)N[C@@H](CCC(N)=O)C(=O)N[C@@H](CCC(=O)O)C(=O)NCC(=O)N[C@@H](CC(=O)O)C(=O)N[C@@H](Cc1ccccc1)C(=O)N[C@@H](CCC(N)=O)C(=O)N[C@H](C(=O)N[C@@H](CCC(=O)O)C(=O)N[C@H](C(=O)O)C(C)C)[C@@H](C)O)C(C)C [AGRB3]
9 | 1590 | 550 | 1310 | 466 | 1470 | 628 | – | – | – | – | – | – | – | – | 1600 | 692 | – | CC[C@H](C)[C@H](NC(=O)[C@H](Cc1ccc(O)cc1)NC(=O)[C@H](CO)NC(=O)CNC(=O)[C@H](CO)NC(=O)[C@H](CCC(N)=O)NC(=O)[C@H](Cc1ccc(O)cc1)NC(C)=O)C(=O)N[C@@H](Cc1c[nH]c2ccccc12)C(=O)N[C@H](C(=O)N1CCC[C@H]1C(=O)N[C@@H](C)C(=O)N[C@@H](CCCCN)C(=O)N[C@@H](CCC(=O)O)C(=O)N[C@@H](CCCCN)C(=O)N[C@@H](CC(C)C)C(=O)O)C(C)C [DLG1]
10 | 2450 | 847 | 2540 | 907 | 1410 | 600 | – | – | – | – | – | – | – | – | 2060 | 894 | – | CSCC[C@H](NC(=O)[C@H](CCC(N)=O)NC(=O)[C@H](CC(=O)O)NC(=O)[C@H](Cc1ccc(O)cc1)NC(=O)[C@H](CC(=O)O)NC(=O)[C@@H]1CCCN1C(=O)[C@H](CO)NC(=O)[C@H](CCCCN)NC(=O)[C@H](CC(C)C)NC(=O)[C@H](Cc1ccc(O)cc1)NC(C)=O)C(=O)N[C@@H](CO)C(=O)N[C@@H](CO)C(=O)N[C@@H](CO)C(=O)N1CCC[C@H]1C(=O)N[C@@H](CS)C(=O)O [CCG5]
11 | – | – | – | – | – | – | 1680 | 580 | 1120 | 475 | 695 | 301 | 980 | 349 | – | – | – | CC(=O)N[C@@H](Cc1ccc(O)cc1)C(=O)N1CCC[C@H]1C(=O)N[C@@H](CCC(N)=O)C(=O)N[C@@H](Cc1c[nH]cn1)C(=O)N[C@@H](CC(C)C)C(=O)N[C@@H](CCCNC(=N)N)C(=O)N[C@H](C(=O)N[C@@H](C)C(=O)N[C@@H](CO)C(=O)N[C@@H](CCCCN)C(=O)N[C@@H](CC(N)=O)C(=O)N[C@@H](CCC(=O)O)C(=O)N[C@H](C(=O)N[C@H](C(=O)N[C@H](C(=O)O)C(C)C)[C@@H](C)O)C(C)C)[C@@H](C)O [SHSA7]
12 | 733 | 254 | 663 | 236 | 1440 | 613 | – | – | – | – | – | – | – | – | – | – | – | CC[C@H](C)[C@H](NC(=O)[C@H](CC(C)C)NC(=O)[C@H](C)NC(=O)[C@@H](NC(=O)[C@H](C)NC(=O)[C@H](Cc1ccc(O)cc1)NC(C)=O)C(C)C)C(=O)N[C@@H](C)C(=O)N[C@@H](Cc1ccc(O)cc1)C(=O)N[C@@H](CC(C)C)C(=O)N[C@@H](CO)C(=O)N[C@@H](CCCCN)C(=O)N[C@@H](CC(N)=O)C(=O)N[C@@H](CC(N)=O)C(=O)N[C@@H](Cc1c[nH]cn1)C(=O)N[C@@H](CC(C)C)C(=O)O [SYNG1]
13 | 997 | 345 | 1430 | 510 | 1590 | 679 | – | – | – | – | – | – | – | – | 1550 | 671 | – | Ac-YPPSSPTLSVSSTSL [KLH17]
14 | – | – | – | – | – | – | 465 | 161 | – | – | 694 | 301 | 1020 | 364 | – | – | – | CC(=O)N[C@@H](Cc1ccc(O)cc1)C(=O)N[C@@H](Cc1ccc(O)cc1)C(=O)N[C@@H](CCC(=O)O)C(=O)N[C@H](C(=O)N[C@@H](CO)C(=O)N[C@@H](Cc1c[nH]cn1)C(=O)N[C@@H](Cc1ccc(O)cc1)C(=O)N1CCC[C@H]1C(=O)N[C@@H](C)C(=O)N[C@@H](CO)C(=O)N1CCC[C@H]1C(=O)N[C@@H](CC(=O)O)C(=O)N[C@@H](CO)C(=O)N[C@@H](Cc1c[nH]c2ccccc12)C(=O)N[C@H](C(=O)O)C(C)C)[C@@H](C)O [CTND2]
15 | 2830 | 979 | 1020 | 365 | – | – | – | – | – | – | – | – | – | – | 1510 | 654 | – | Ac-YQEQNKVLWIPASPL [DLG5]
